Experimental data reported in US9662318B2, “Bitopic muscarinic agonists and antagonists and methods of synthesis and use thereof” (BARRY UNIVERSITY, INC., priority 2012, dated 2017).
Like-named read-outs stand apart in the source and are kept apart here.

What was measured:
M3 muscarinic receptor [1] = target: T1, M3 muscarinic receptor (Homo sapiens, UniProt P20309); assay: Accumulation of inositol phosphates in CHO cells; type: cell-based; settings: ligand 0.1 mM, no carbachol
T1 construct: host or cells: Chinese hamster ovary cells
Protocol: (§3) Chinese hamster ovary cells stably transfected with the genes of human variants of muscarinic receptors were purchased from Missouri S&T cDNA Resource Center (Rolla, Mo., USA). […] Cells were grown to confluency in 75 cm^2 flasks in Dulbecco's modified Eagle's medium supplemented with 10% fetal bovine serum and 2 million of cells were subcultured to 100 mm Petri dishes. Medium was supplemented with 5 mM butyrate for the last 24 hours of cultivation to increase receptor expression.
(§4) Inositolphosphates formation was determined in cells pre-labeled overnight by 0.5 μM [^3H]myo-inositol in 0.3 mL of DMEM (3 μCi/ml) at 37° C. […] Incubation was stopped by removal of incubation buffer and addition 0.2 mL 20% trichloracetic acid (TCA). After 1 h incubation at 4° C., 100 μL, of TCA extracts were taken for measurement. Rest of the TCA was removed, and TCA precipitates were washed with 200 μL TCA and dissolved in 200 μL of 1 M NaOH. After 1 h incubation at 4° C., 100 μL, of NaOH lysates were taken for measurement. Radioactivity in TCA extracts and NaOH lysates were determined by liquid scintillation counting. The rate of inositolphosphates accumulation was calculated as a percentage of the soluble (released) inositolphosphates from the total incorporated radioactivity (sum of radioactivity in NaOH lysates and TCA extracts).
(§5) EC50 values are expressed as negative logarithms and EMAX values as folds over basal, Table 7.

M1 muscarinic receptor [2] = target: T2, M1 muscarinic receptor (Homo sapiens, UniProt P11229); assay: Accumulation of inositol phosphates in CHO cells; type: cell-based; settings: ligand 0.1 mM, no carbachol
T2 sequence (P11229 1-460): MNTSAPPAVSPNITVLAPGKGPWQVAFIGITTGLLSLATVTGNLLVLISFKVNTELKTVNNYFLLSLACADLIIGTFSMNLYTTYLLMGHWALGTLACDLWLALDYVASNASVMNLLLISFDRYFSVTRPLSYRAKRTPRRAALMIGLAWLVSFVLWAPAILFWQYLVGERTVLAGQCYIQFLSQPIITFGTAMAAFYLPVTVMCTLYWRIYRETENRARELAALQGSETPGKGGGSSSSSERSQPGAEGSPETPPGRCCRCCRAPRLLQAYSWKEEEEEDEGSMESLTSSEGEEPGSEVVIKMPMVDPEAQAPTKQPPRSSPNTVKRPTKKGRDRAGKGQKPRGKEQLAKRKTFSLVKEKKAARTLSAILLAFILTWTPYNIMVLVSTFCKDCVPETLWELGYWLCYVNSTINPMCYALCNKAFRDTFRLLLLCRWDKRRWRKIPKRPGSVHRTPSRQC
Protocol: as §3, §4, §5

M5 muscarinic receptor [3] = target: T3, M5 muscarinic receptor (Homo sapiens, UniProt P08912); assay: Accumulation of inositol phosphates in CHO cells; type: cell-based; settings: M5; ligand 0.1 mM; no carbachol
T3 construct: host or cells: CHO (Chinese hamster ovary) cells, stably transfected
T3 sequence (P08912 1-532): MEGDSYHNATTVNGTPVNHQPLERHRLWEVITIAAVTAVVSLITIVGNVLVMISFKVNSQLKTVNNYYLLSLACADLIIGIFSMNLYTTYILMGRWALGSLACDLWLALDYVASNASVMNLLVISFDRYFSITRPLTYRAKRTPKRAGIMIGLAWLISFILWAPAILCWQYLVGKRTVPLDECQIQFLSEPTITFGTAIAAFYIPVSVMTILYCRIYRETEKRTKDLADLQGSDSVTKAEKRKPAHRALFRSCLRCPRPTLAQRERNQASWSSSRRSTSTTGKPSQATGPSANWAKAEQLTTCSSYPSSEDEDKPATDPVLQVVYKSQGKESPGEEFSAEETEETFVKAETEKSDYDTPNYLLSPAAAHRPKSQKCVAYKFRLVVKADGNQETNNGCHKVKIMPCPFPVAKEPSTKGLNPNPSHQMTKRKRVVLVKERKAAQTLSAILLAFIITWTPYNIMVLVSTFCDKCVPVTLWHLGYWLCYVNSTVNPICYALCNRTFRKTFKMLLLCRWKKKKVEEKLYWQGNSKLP
Protocol: as §3, §4, §5

[4] = tested on: M1-M5 muscarinic receptors; assay: Competition with [3H]NMS, statements over all subtypes; type: binding, human; settings: competition experiments, all M1-M5
M5 muscarinic receptor [5] = target: T3, M5 muscarinic receptor; assay: biochemical; type: binding; settings: competition with [^3H]QNB
M4 muscarinic receptor [6] = target: T4, M4 muscarinic receptor (Homo sapiens, UniProt P08173); assay: Competition with [3H]NMS (equilibrium binding, CHO membranes); settings: for IC50: competition with [^3H]NMS
T4 construct: host or cells: Chinese hamster ovary cells
T4 sequence (P08173 1-479): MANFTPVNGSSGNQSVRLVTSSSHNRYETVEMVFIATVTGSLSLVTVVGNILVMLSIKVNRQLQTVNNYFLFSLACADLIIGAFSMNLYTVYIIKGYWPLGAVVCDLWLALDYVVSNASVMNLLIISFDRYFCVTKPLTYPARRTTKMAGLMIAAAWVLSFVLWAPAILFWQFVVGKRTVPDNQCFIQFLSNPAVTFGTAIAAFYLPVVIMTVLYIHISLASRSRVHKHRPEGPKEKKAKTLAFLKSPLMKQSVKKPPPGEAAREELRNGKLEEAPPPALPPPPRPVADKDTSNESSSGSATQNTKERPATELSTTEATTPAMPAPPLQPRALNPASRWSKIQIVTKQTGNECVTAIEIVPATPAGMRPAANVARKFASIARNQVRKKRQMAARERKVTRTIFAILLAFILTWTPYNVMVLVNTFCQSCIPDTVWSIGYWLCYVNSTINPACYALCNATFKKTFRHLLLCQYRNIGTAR
Protocol: (§1) All radioligand binding experiments were optimized and carried out as described earlier. Briefly, membranes were incubated in 96-well plates at 30° C. in the incubation medium described. […] Dissociation was initiated by addition of atropine to final concentration of 5 Tested ligands in final concentration of 100 μM were added concurrently with atropine. Incubations were terminated by filtration through Whatman GF/C glass fiber filters (Whatman) using a Brandel cell harvester (Brandel, Gaithersburg, Md., USA). Filters were dried in vacuum for 1 h while heated at 80° C. and then solid scintillator Meltilex A was melted on filters (105° C., 90 s) using a hot plate. The filters were cooled and counted in Wallac Microbeta scintillation counter.
(§2) Inhibition constant KI was calculated as: […]

M5 muscarinic receptor [7] = target: T3, M5 muscarinic receptor; assay: as above; settings: for IC50: competition with [^3H]NMS
Protocol: as §1, §2

M1 muscarinic receptor [8] = target: T2, M1 muscarinic receptor; assay: as above; settings: for IC50: competition with [^3H]NMS
Protocol: as §1, §2

M3 muscarinic receptor [9] = target: T1, M3 muscarinic receptor; assay: as above; settings: for IC50: competition with [^3H]NMS
Protocol: as §1, §2

M4 muscarinic receptor [10] = target: T4, M4 muscarinic receptor; assay: biochemical; type: binding; settings: competition with [^3H]QNB
M4 muscarinic receptor [11] = target: T4, M4 muscarinic receptor; assay: Accumulation of inositol phosphates in CHO cells; type: cell-based; settings: M4; ligand 0.1 mM; no carbachol
Protocol: as §3, §4, §5

[12] = M5, average of 3, read-out: avg IC50
[13] = M5, experiment 1, read-out: IC50—1
[14] = M5, experiment 2, read-out: IC50—2
[15] = M5, experiment 3, read-out: IC50—3
[16] = M4, average of 3, read-out: avg IC50
[17] = M4, experiment 1, read-out: IC50—1
[18] = M4, experiment 2, read-out: IC50—2
[19] = M4, experiment 3, read-out: IC50—3

T1 sequence (P20309 whole entry): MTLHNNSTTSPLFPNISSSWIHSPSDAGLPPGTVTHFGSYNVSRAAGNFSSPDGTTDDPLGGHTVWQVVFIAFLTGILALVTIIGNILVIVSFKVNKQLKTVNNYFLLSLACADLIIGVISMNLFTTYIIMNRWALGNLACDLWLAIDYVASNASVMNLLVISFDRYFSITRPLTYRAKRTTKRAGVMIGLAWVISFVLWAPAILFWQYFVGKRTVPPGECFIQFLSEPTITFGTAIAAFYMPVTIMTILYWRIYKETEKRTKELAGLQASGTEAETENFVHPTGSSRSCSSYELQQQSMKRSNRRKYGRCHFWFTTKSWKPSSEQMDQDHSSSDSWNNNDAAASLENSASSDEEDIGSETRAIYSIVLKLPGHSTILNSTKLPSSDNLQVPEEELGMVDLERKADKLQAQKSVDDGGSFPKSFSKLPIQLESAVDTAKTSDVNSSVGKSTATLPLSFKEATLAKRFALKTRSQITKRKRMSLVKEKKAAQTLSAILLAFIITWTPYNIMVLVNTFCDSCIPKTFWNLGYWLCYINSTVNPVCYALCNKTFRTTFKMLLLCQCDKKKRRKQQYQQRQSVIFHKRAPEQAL

CCCCOc1ccc(C(=O)OCC[N+]2(C)CCCCC2)cc1.[I-] [JB-D4, 2-(N-piperidineethyl) p-butoxybenzoate N-methyl iodide]
Effect of ligands on basal activity (accumulation of inositol phosphates as percent of accumulation in the absence of the ligand) (M3 muscarinic receptor [1]): 102 ± 2% | Effect of ligands on basal activity (accumulation of inositol phosphates as percent of accumulation in the absence of the ligand) (M1 muscarinic receptor [2]): 97 ± 2% | Effect of ligands on basal activity (accumulation of inositol phosphates as percent of accumulation in the absence of the ligand) (M5 muscarinic receptor [3]): 98 ± 3% | inhibition of [^3H]NMS binding [4]: fully inhibit | Ki (M5 muscarinic receptor [5]; M5): 0.827 µM | IC50 (M5 muscarinic receptor [5]; [12]): 6.61 µM | IC50 (M5 muscarinic receptor [5]; [13]): 5.73 µM | IC50 (M5 muscarinic receptor [5]; [14]): 6.76 µM | IC50 (M5 muscarinic receptor [5]; [15]): 7.34 µM | IC50 (M4 muscarinic receptor [6]; [16]): 41.8 µM | IC50 (M4 muscarinic receptor [6]; [17]): 43.4 µM | IC50 (M4 muscarinic receptor [6]; [18]): 42 µM | IC50 (M4 muscarinic receptor [6]; [19]): 40 µM | Ki (M4 muscarinic receptor [6]; read-out: KI): 7.54 µM | IC50 (M5 muscarinic receptor [7]; [12]): 12.5 µM | IC50 (M5 muscarinic receptor [7]; [13]): 12.5 µM | IC50 (M5 muscarinic receptor [7]; [14]): 11.2 µM | IC50 (M5 muscarinic receptor [7]; [15]): 13.7 µM | Ki (M5 muscarinic receptor [7]; read-out: KI): 2.88 µM | IC50 (M1 muscarinic receptor [8]; M1, average of 3, read-out: avg IC50): 14.4 µM | IC50 (M1 muscarinic receptor [8]; M1, experiment 1, read-out: IC50—1): 14.3 µM | IC50 (M1 muscarinic receptor [8]; M1, experiment 2, read-out: IC50—2): 13.8 µM | IC50 (M1 muscarinic receptor [8]; M1, experiment 3, read-out: IC50—3): 15.1 µM | Ki (M1 muscarinic receptor [8]; read-out: KI): 2.88 µM | IC50 (M3 muscarinic receptor [9]; M3, average of 3, read-out: avg IC50): 16.9 µM | IC50 (M3 muscarinic receptor [9]; M3, experiment 1, read-out: IC50—1): 16.6 µM | IC50 (M3 muscarinic receptor [9]; M3, experiment 2, read-out: IC50—2): 17.2 µM | IC50 (M3 muscarinic receptor [9]; M3, experiment 3, read-out: IC50—3): 16.9 µM | Ki (M3 muscarinic receptor [9]; read-out: KI): 3.16 µM | Ki (M4 muscarinic receptor [10]; M4): 3.08 µM | IC50 (M4 muscarinic receptor [10]; [16]): 27.1 µM | IC50 (M4 muscarinic receptor [10]; [17]): 20.6 µM | IC50 (M4 muscarinic receptor [10]; [18]): 32.6 µM | IC50 (M4 muscarinic receptor [10]; [19]): 28.1 µM | Effect of ligands on basal activity (accumulation of inositol phosphates as percent of accumulation in the absence of the ligand) (M4 muscarinic receptor [11]): 98 ± 4%
